Test system: MV-4-11 cells
Assay: Gene expression microarray analysis (Affymetrix PrimeView) and GSEA
Format: cell-based, human
Parameters: RFU PODN (11730768_x_at) / Fold change /veh PODN (11730768_x_at) / RFU LINC00158 (11744669_a_at) / Fold change /veh LINC00158 (11744669_a_at) / RFU DUSP10 (11751237_a_at) / Fold change /veh DUSP10 (11751237_a_at) / RFU ID3 (11757404_x_at) / Fold change /veh ID3 (11757404_x_at) / RFU PLEKHG5 (11737974_s_at) / Fold change /veh PLEKHG5 (11737974_s_at) / RFU LRRC4B (11730491_at) / Fold change /veh LRRC4B (11730491_at) / RFU GIMAP4 (11747438_a_at) / Fold change /veh GIMAP4 (11747438_a_at) / RFU KRT8 (11758183_x_at) / Fold change /veh KRT8 (11758183_x_at) / RFU CNN1 (11734310_a_at) / Fold change /veh CNN1 (11734310_a_at) / RFU VPS37D (11726825_at) / Fold change /veh VPS37D (11726825_at) / RFU C10orf10 (11716522_x_at) / Fold change /veh C10orf10 (11716522_x_at) / RFU KIR2DL2 /// KIR2DL4 /// KIR2DL5A /// KIR2DL5B /// KIR2DS1 /// KIR2DS2 /// KIR2DS3 /// KIR2DS4 /// KIR3DL3 /// KIR3DL3 /// KIR3DS1 (11738374_at) / Fold change /veh KIR2DL2 /// KIR2DL4 /// KIR2DL5A /// KIR2DL5B /// KIR2DS1 /// KIR2DS2 /// KIR2DS3 /// KIR2DS4 /// KIR3DL3 /// KIR3DL3 /// KIR3DS1 (11738374_at) / RFU C1QL1 (11718748_at) / Fold change /veh C1QL1 (11718748_at) / RFU TMPRSS4 (11747572_a_at) / Fold change /veh TMPRSS4 (11747572_a_at) / RFU HAMP (11756126_x_at) / Fold change /veh HAMP (11756126_x_at) / RFU RNFT2 (11725882_a_at) / Fold change /veh RNFT2 (11725882_a_at) / RFU NR4A2 (11747474_a_at) / Fold change /veh NR4A2 (11747474_a_at) / RFU ABCC12 (11746883_a_at) / Fold change /veh ABCC12 (11746883_a_at) / RFU TMEM136 (11760407_x_at) / Fold change /veh TMEM136 (11760407_x_at) / RFU CLDN22 /// WWC2 (11732394_at) / Fold change /veh CLDN22 /// WWC2 (11732394_at) / RFU HLA-DPB1 (11760878_x_at) / Fold change /veh HLA-DPB1 (11760878_x_at) / RFU SPINT1 (11716480_a_at) / Fold change /veh SPINT1 (11716480_a_at) / RFU GAP43 (11754022_s_at) / Fold change /veh GAP43 (11754022_s_at) / RFU A4GNT (11735810_at) / Fold change /veh A4GNT (11735810_at) / RFU PRB3 (11715151_x_at) / Fold change /veh PRB3 (11715151_x_at) / RFU TUBB4B (11761932_at) / Fold change /veh TUBB4B (11761932_at) / RFU CAPN14 (11732068_a_at) / Fold change /veh CAPN14 (11732068_a_at) / RFU TMCC2 (11721928_a_at) / Fold change /veh TMCC2 (11721928_a_at) / RFU IRGQ (11745062_a_at) / Fold change /veh IRGQ (11745062_a_at) / RFU FAM174B (11720279_a_at) / Fold change /veh FAM174B (11720279_a_at) / RFU TMPRSS4 (11748680_a_at) / Fold change /veh TMPRSS4 (11748680_a_at) / RFU FAM212B (11763350_a_at) / Fold change /veh FAM212B (11763350_a_at) / RFU PLEKHG5 (11743358_a_at) / Fold change /veh PLEKHG5 (11743358_a_at) / RFU ZSCAN30 (11745921_a_at) / Fold change /veh ZSCAN30 (11745921_a_at) / RFU CMKLR1 (11741424_a_at) / Fold change /veh CMKLR1 (11741424_a_at) / RFU LOC101060620 /// MAPK8IP1 (11723275_at) / Fold change /veh LOC101060620 /// MAPK8IP1 (11723275_at) / RFU SPTSSB (11747773_x_at) / Fold change /veh SPTSSB (11747773_x_at) / RFU PRSS12 (11739890_at) / Fold change /veh PRSS12 (11739890_at) / RFU BIN1 (11741810_x_at) / Fold change /veh BIN1 (11741810_x_at) / RFU WNT11 (11732464_a_at) / Fold change /veh WNT11 (11732464_a_at) / RFU C10orf10 (11716521_a_at) / Fold change /veh C10orf10 (11716521_a_at) / RFU C5orf56 (11738089_at) / Fold change /veh C5orf56 (11738089_at) / RFU CYB561 (11721691_x_at) / Fold change /veh CYB561 (11721691_x_at) / RFU ANKRD19P (11752326_a_at) / Fold change /veh ANKRD19P (11752326_a_at) / RFU OR2T12 /// OR2T33 /// OR2T8 (11738714_s_at) / Fold change /veh OR2T12 /// OR2T33 /// OR2T8 (11738714_s_at) / RFU VCAN (11748164_a_at) / Fold change /veh VCAN (11748164_a_at) / RFU JSRP1 (11732532_at) / Fold change /veh JSRP1 (11732532_at) / RFU KRTAP10-11 (11738290_x_at) / Fold change /veh KRTAP10-11 (11738290_x_at) / RFU MYO3A (11730013_a_at) / Fold change /veh MYO3A (11730013_a_at) / RFU EBF3 (11725865_a_at) / Fold change /veh EBF3 (11725865_a_at) / RFU CAMK2N1 (11719241_x_at) / Fold change /veh CAMK2N1 (11719241_x_at) / RFU C5orf56 (11738088_a_at) / Fold change /veh C5orf56 (11738088_a_at) / RFU OLFML3 (11715873_a_at) / Fold change /veh OLFML3 (11715873_a_at) / RFU LOC100653217 /// NTM (11731650_a_at) / Fold change /veh LOC100653217 /// NTM (11731650_a_at) / RFU MAPK11 (11762145_a_at) / Fold change /veh MAPK11 (11762145_a_at) / RFU FIZ1 (11724087_x_at) / Fold change /veh FIZ1 (11724087_x_at) / RFU OASL (11726364_x_at) / Fold change /veh OASL (11726364_x_at) / RFU SOX15 (11748057_x_at) / Fold change /veh SOX15 (11748057_x_at) / RFU CD79A (11719716_a_at) / Fold change /veh CD79A (11719716_a_at) / RFU HIST1H1D (11736915_at) / Fold change /veh HIST1H1D (11736915_at) / RFU CASKIN2 (11723855_a_at) / Fold change /veh CASKIN2 (11723855_a_at) / RFU LOC730098 (11760151_x_at) / Fold change /veh LOC730098 (11760151_x_at) / RFU OR4N2 (11742367_at) / Fold change /veh OR4N2 (11742367_at) / RFU PRRT2 (11749266_a_at) / Fold change /veh PRRT2 (11749266_a_at) / RFU SNX32 (11753110_a_at) / Fold change /veh SNX32 (11753110_a_at) / RFU CDHR5 (11726645_a_at) / Fold change /veh CDHR5 (11726645_a_at) / RFU RCAN1 (11760418_a_at) / Fold change /veh RCAN1 (11760418_a_at) / RFU FAM167A (11723789_a_at) / Fold change /veh FAM167A (11723789_a_at) / RFU FAM26E (11764081_at) / Fold change /veh FAM26E (11764081_at) / RFU ISYNA1 (11749810_s_at) / Fold change /veh ISYNA1 (11749810_s_at) / RFU ACY1 (11761880_at) / Fold change /veh ACY1 (11761880_at) / RFU 11764098_at / Fold change /veh 11764098_at / RFU SAMD14 (11745864_x_at) / Fold change /veh SAMD14 (11745864_x_at) / RFU NPB (11741838_a_at) / Fold change /veh NPB (11741838_a_at) / RFU TMPRSS6 (11731388_a_at) / Fold change /veh TMPRSS6 (11731388_a_at) / RFU KRTAP10-2 (11738614_at) / Fold change /veh KRTAP10-2 (11738614_at) / RFU ARHGAP8 /// PRR5-ARHGAP8 (11727945_x_at) / Fold change /veh ARHGAP8 /// PRR5-ARHGAP8 (11727945_x_at) / RFU KRTAP5-7 /// NADSYN1 (11734609_at) / Fold change /veh KRTAP5-7 /// NADSYN1 (11734609_at) / RFU RASL12 (11751679_a_at) / Fold change /veh RASL12 (11751679_a_at) / RFU CDKN2B (11736163_a_at) / Fold change /veh CDKN2B (11736163_a_at) / RFU PRF1 (11729649_at) / Fold change /veh PRF1 (11729649_at) / RFU, ZNF638 /// ZNF638-IT1 / Fold change vs veh, ZNF638 /// ZNF638-IT1 / RFU, PANK3 / Fold change vs veh, PANK3 / RFU, SH3YL1 / Fold change vs veh, SH3YL1 / RFU, ZEB2 / Fold change vs veh, ZEB2 / RFU, NRIP1 / Fold change vs veh, NRIP1 / RFU, PTTG1IP / Fold change vs veh, PTTG1IP / RFU, CAPN2 / Fold change vs veh, CAPN2 / RFU, MED14 / Fold change vs veh, MED14 / RFU, SNORA58 / Fold change vs veh, SNORA58 / RFU, C1orf63 / Fold change vs veh, C1orf63 / RFU, LRRFIP1 / Fold change vs veh, LRRFIP1 / RFU, NDUFAF7 / Fold change vs veh, NDUFAF7 / RFU, SLC12A2 / Fold change vs veh, SLC12A2 / RFU, IBTK / Fold change vs veh, IBTK / RFU, ESF1 / Fold change vs veh, ESF1 / Fold change vs veh, TMEM50B / RFU, TAOK1 / Fold change vs veh, TAOK1 / RFU, ACBD3 / Fold change vs veh, ACBD3 / RFU, TMA16 / Fold change vs veh, TMA16 / RFU, RWDD3 / Fold change vs veh, RWDD3 / RFU, BCAT1 / Fold change vs veh, BCAT1 / RFU, EDEM3 / Fold change vs veh, EDEM3 / RFU, TMEM33 / Fold change vs veh, TMEM33 / RFU, WDR75 / Fold change vs veh, WDR75 / RFU, AHCTF1 / Fold change vs veh, AHCTF1 / RFU, TFRC / Fold change vs veh, TFRC / RFU, ZDHHC17 / Fold change vs veh, ZDHHC17 / RFU, NOM1 / Fold change vs veh, NOM1 / RFU, ARL8B / Fold change vs veh, ARL8B / RFU, ZBTB11 / Fold change vs veh, ZBTB11 / RFU, TAMM41 / Fold change vs veh, TAMM41 / RFU, KIAA1704 /// LOC100996395 / Fold change vs veh, KIAA1704 /// LOC100996395 / RFU, ING1 / Fold change vs veh, ING1 / RFU, TRMT61B / Fold change vs veh, TRMT61B / RFU, FUBP3 / Fold change vs veh, FUBP3 / RFU, TP53 / Fold change vs veh, TP53 / RFU, TNKS2 / Fold change vs veh, TNKS2 / RFU, ZFP14 / Fold change vs veh, ZFP14 / RFU, ACTR2 / Fold change vs veh, ACTR2 / RFU, PPP3R1 / Fold change vs veh, PPP3R1 / RFU, PIK3R1 / Fold change vs veh, PIK3R1 / RFU, HNRNPA1 / Fold change vs veh, HNRNPA1 / RFU, RNF170 / Fold change vs veh, RNF170 / RFU, ZNF28 / Fold change vs veh, ZNF28 / RFU, RNGTT / Fold change vs veh, RNGTT / RFU, OGT / Fold change vs veh, OGT / RFU, BRD1 / Fold change vs veh, BRD1 / RFU, MARS / Fold change vs veh, MARS / RFU, ZNF655 / Fold change vs veh, ZNF655 / RFU, FAHD1 / Fold change vs veh, FAHD1 / RFU, BDP1 / Fold change vs veh, BDP1 / RFU, LRRCC1 / Fold change vs veh, LRRCC1 / RFU, ARID1A / Fold change vs veh, ARID1A / RFU, ZNF146 / Fold change vs veh, ZNF146 / RFU, ZNF330 / Fold change vs veh, ZNF330 / RFU, GPN3 / Fold change vs veh, GPN3 / RFU, C9orf123 / Fold change vs veh, C9orf123 / RFU, N4BP2L2 / Fold change vs veh, N4BP2L2 / RFU, ARFIP1 / Fold change vs veh, ARFIP1 / RFU, FAM179B / Fold change vs veh, FAM179B / RFU, BCL10 / Fold change vs veh, BCL10 / RFU, UHRF1BP1L / Fold change vs veh, UHRF1BP1L / RFU, BET1 / Fold change vs veh, BET1 / RFU, CNOT2 / Fold change vs veh, CNOT2 / RFU, ZNF268 / Fold change vs veh, ZNF268 / Fold change vs veh, ZNF507 / RFU, DGCR2 / Fold change vs veh, DGCR2 / RFU, WDSUB1 / Fold change vs veh, WDSUB1 / Fold change vs veh, HSP90B1 /// MIR3652 / RFU, ADSS / Fold change vs veh, ADSS / RFU, GK / Fold change vs veh, GK / RFU, ZNF148 / Fold change vs veh, ZNF148 / RFU, TAF9 / Fold change vs veh, TAF9 / RFU, SLC1A5 / Fold change vs veh, SLC1A5 / RFU, SLMO2 / Fold change vs veh, SLMO2 / RFU, ABCC4 / Fold change vs veh, ABCC4 / RFU, LOC101060439 /// RAP1B / Fold change vs veh, LOC101060439 /// RAP1B / RFU, RFX7 / Fold change vs veh, RFX7 / RFU, GTPBP10 / Fold change vs veh, GTPBP10 / RFU, CNEP1R1 / Fold change vs veh, CNEP1R1 / RFU, BIVM-ERCC5 /// ERCC5 / Fold change vs veh, BIVM-ERCC5 /// ERCC5 / RFU, ILF3 / Fold change vs veh, ILF3 / RFU 11762660_at / Fold change /veh 11762660_at / RFU VCAN (11757783_s_at) / Fold change /veh VCAN (11757783_s_at) / RFU DDX43 (11728927_at) / Fold change /veh DDX43 (11728927_at) / RFU KRT8 (11758188_x_at) / Fold change /veh KRT8 (11758188_x_at) / RFU NKD1 (11759106_at) / Fold change /veh NKD1 (11759106_at) / RFU SRD5A1 (11742802_a_at) / Fold change /veh SRD5A1 (11742802_a_at) / RFU TPSAB1 /// TPSB2 (11721975_s_at) / Fold change /veh TPSAB1 /// TPSB2 (11721975_s_at) / RFU GSTM3 (11746129_a_at) / Fold change /veh GSTM3 (11746129_a_at) / RFU IL23R (11737362_x_at) / Fold change /veh IL23R (11737362_x_at) / RFU TMEM51 (11727254_a_at) / Fold change /veh TMEM51 (11727254_a_at) / RFU PIWIL2 (11732686_x_at) / Fold change /veh PIWIL2 (11732686_x_at) / RFU ORM1 (11744905_x_at) / Fold change /veh ORM1 (11744905_x_at) / RFU CCDC152 (11743942_at) / Fold change /veh CCDC152 (11743942_at) / RFU ECM1 (11717891_a_at) / Fold change /veh ECM1 (11717891_a_at) / RFU IL23R (11748794_a_at) / Fold change /veh IL23R (11748794_a_at) / RFU TNFAIP8L3 (11732012_x_at) / Fold change /veh TNFAIP8L3 (11732012_x_at) / RFU MBOAT4 (11741988_at) / Fold change /veh MBOAT4 (11741988_at) / RFU 11764193_at / Fold change /veh 11764193_at / RFU TMEM53 (11763286_at) / Fold change /veh TMEM53 (11763286_at) / RFU MAGEB2 (11727129_at) / Fold change /veh MAGEB2 (11727129_at) / RFU TMEM200A (11744735_a_at) / Fold change /veh TMEM200A (11744735_a_at) / RFU CCDC152 (11751479_a_at) / Fold change /veh CCDC152 (11751479_a_at) / RFU FAM211A (11726209_a_at) / Fold change /veh FAM211A (11726209_a_at) / RFU RGS16 (11746705_a_at) / Fold change /veh RGS16 (11746705_a_at) / RFU VCAN (11755009_s_at) / Fold change /veh VCAN (11755009_s_at) / RFU RHOB (11743442_s_at) / Fold change /veh RHOB (11743442_s_at) / RFU RGS16 (11720943_a_at) / Fold change /veh RGS16 (11720943_a_at) / RFU RGS16 (11720944_at) / Fold change /veh RGS16 (11720944_at) / RFU, VPS4B / Fold change vs veh, VPS4B / RFU, CREB1 / Fold change vs veh, CREB1 / RFU, DNAJC13 / Fold change vs veh, DNAJC13 / RFU, GNAQ / Fold change vs veh, GNAQ / RFU, CDK5R1 / Fold change vs veh, CDK5R1 / RFU, ZRANB3 / Fold change vs veh, ZRANB3 / RFU, CUL4A / Fold change vs veh, CUL4A / RFU, CCNY / Fold change vs veh, CCNY / RFU, UFL1 / Fold change vs veh, UFL1 / RFU, COG3 / Fold change vs veh, COG3 / RFU, DIAPH2 / Fold change vs veh, DIAPH2 / RFU, SKA2 / Fold change vs veh, SKA2 / RFU, AFF3 / Fold change vs veh, AFF3 / RFU, LMF1 / Fold change vs veh, LMF1 / RFU, IPO11 / Fold change vs veh, IPO11 / RFU, DFFB / Fold change vs veh, DFFB / RFU, FOXP1 / Fold change vs veh, FOXP1 / RFU, CARD8 / Fold change vs veh, CARD8 / RFU, STRN3 / Fold change vs veh, STRN3 / RFU, ADK / Fold change vs veh, ADK / RFU, RASSF2 / Fold change vs veh, RASSF2 / RFU, WIPF1 / Fold change vs veh, WIPF1 / RFU, LARP1B / Fold change vs veh, LARP1B / RFU, RASA1 / Fold change vs veh, RASA1 / RFU, RB1 / Fold change vs veh, RB1 / RFU, PPFIA1 / Fold change vs veh, PPFIA1 / RFU, MAT2A / Fold change vs veh, MAT2A / RFU, CCT5 / Fold change vs veh, CCT5 / RFU, WDR92 / Fold change vs veh, WDR92 / RFU, CUX1 / Fold change vs veh, CUX1 / RFU, TTC7A / Fold change vs veh, TTC7A / RFU, TMEM135 / Fold change vs veh, TMEM135 / RFU, DEPTOR / Fold change vs veh, DEPTOR / RFU, CPM / Fold change vs veh, CPM / RFU, DNAJB6 / Fold change vs veh, DNAJB6 / RFU, CACNA2D3 / Fold change vs veh, CACNA2D3 / RFU, DTX4 / Fold change vs veh, DTX4 / RFU, TFCP2 / Fold change vs veh, TFCP2 / RFU, GMCL1 /// GMCL1P1 / Fold change vs veh, GMCL1 /// GMCL1P1 / RFU, AEBP2 / Fold change vs veh, AEBP2 / RFU, SNHG1 /// SNORD22 /// SNORD25 /// SNORD26 /// SNORD27 /// SNORD28 /// SNORD29 /// SNORD31 / Fold change vs veh, SNHG1 /// SNORD22 /// SNORD25 /// SNORD26 /// SNORD27 /// SNORD28 /// SNORD29 /// SNORD31 / Fold change (Aza/veh), C12orf56 (ProbeSet 11735607_a_at) / Fold change (ACY-1035/veh), C12orf56 (ProbeSet 11735607_a_at) / Fold change (Aza/veh), FGFR1OP (ProbeSet 11751329_s_at) / Fold change (ACY-1035/veh), FGFR1OP (ProbeSet 11751329_s_at) / Fold change (Aza/veh), VPS36 (ProbeSet 11739960_a_at) / Fold change (ACY-1035/veh), VPS36 (ProbeSet 11739960_a_at) / RFU SYPL1 (11715823_x_at) / Fold change /veh SYPL1 (11715823_x_at) / RFU IGFBP7 (11715501_s_at) / Fold change /veh IGFBP7 (11715501_s_at) / RFU REEP3 (11722064_at) / Fold change /veh REEP3 (11722064_at) / RFU IGLL1 (11728026_x_at) / Fold change /veh IGLL1 (11728026_x_at): dose or concentration left out as unconfirmed
Conditions: ProbeSet 11743580_s_at; LIST B

Nc1ccc(-c2cccs2)cc1NC(=O)c1ccc2c(c1)cc(C1CC1)n2CCN1CCOCC1 [ACY-1035]
RFU, ACTR2: 854.57 RFU

From paper PMC5218480 (PLoS ONE, 2017)
